Assays:
OAT1 = target: T1, OAT1 (Homo sapiens, UniProt Q4U2R8); experiment: SLC transportation assay in HEK293 cells; settings: uptake ratios <2 at 0.1, 0.3, 5 µM
T1 sequence (Q4U2R8 1-563): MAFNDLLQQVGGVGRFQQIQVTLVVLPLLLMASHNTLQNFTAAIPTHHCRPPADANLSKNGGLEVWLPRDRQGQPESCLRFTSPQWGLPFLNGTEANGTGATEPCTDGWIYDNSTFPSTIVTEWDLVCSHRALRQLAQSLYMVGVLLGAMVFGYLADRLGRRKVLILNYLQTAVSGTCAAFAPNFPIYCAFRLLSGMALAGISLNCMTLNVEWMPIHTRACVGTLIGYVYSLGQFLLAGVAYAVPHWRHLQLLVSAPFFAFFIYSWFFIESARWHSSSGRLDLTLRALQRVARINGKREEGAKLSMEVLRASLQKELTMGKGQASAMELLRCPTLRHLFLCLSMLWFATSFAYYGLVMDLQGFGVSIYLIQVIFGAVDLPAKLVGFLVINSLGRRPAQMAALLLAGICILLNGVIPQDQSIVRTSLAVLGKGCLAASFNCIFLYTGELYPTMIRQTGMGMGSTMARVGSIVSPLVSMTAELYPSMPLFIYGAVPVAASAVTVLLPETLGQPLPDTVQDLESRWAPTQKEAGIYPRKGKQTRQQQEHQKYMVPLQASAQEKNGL

CYP2C19 = CYP2C19 (Homo sapiens, UniProt P33261); experiment: Time-dependent CYP inhibition in HLMs; settings: 10 µM zanubrutinib, 30 min pre-incubation with HLMs and NADPH
P-gp = P-gp (Homo sapiens, UniProt P08183); experiment: P-gp inhibition in Caco-2 cells; format: in vitro ADME; settings: up to 10 μM
CYP1A2 [1] = settings: DDI basic model value for induction
CYP2C9 = CYP2C9 (Homo sapiens, UniProt P11712); experiment: Time-dependent CYP inhibition in HLMs; settings: 10 µM zanubrutinib, 30 min pre-incubation with HLMs and NADPH
CYP1A2 [2] = target: T2, CYP1A2 (Homo sapiens, UniProt P05177); settings: 10 µM zanubrutinib, 30 min pre-incubation with HLMs and NADPH
T2 sequence (P05177 1-516): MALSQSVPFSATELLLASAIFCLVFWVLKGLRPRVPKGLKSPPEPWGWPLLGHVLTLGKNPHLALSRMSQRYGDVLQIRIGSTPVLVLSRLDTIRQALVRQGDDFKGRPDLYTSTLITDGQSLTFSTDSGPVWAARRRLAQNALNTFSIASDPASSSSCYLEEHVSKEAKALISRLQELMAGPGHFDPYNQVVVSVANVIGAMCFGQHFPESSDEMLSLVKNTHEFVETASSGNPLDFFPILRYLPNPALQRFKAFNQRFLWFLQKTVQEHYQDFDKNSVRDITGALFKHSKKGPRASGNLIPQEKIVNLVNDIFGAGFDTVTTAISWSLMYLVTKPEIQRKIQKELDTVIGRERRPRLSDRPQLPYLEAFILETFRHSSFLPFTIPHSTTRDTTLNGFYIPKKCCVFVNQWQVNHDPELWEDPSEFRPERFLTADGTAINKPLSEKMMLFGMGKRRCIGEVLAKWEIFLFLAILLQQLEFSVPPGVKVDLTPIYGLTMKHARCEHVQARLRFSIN

Sequence of CYP2C9 (P11712 whole entry): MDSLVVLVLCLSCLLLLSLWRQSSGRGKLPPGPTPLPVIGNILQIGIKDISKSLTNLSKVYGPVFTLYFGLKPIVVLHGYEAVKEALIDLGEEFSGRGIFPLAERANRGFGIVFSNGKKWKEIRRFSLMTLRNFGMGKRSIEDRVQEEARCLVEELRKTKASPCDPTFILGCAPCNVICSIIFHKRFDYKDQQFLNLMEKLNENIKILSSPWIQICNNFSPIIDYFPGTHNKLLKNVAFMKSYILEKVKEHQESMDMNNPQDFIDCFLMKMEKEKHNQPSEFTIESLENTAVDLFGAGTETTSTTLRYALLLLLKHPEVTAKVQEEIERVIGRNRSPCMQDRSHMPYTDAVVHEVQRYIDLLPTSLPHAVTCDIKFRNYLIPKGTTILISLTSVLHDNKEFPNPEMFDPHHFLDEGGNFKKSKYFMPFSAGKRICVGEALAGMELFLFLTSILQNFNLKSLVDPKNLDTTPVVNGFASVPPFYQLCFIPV
Sequence of CYP2C19 (P33261 whole entry): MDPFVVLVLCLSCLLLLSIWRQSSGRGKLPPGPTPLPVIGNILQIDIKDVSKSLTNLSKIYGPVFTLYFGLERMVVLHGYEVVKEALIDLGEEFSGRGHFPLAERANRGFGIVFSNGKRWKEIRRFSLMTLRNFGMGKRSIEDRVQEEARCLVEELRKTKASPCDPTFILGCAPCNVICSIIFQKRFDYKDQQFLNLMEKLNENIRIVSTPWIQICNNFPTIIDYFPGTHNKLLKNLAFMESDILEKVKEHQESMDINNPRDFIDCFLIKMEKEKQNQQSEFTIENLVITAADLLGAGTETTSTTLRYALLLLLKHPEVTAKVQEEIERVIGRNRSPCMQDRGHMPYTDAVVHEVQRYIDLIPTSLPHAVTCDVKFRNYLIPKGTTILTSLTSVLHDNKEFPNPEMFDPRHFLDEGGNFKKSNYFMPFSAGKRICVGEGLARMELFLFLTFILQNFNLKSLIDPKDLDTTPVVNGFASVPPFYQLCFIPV
Sequence of P-gp (P08183 whole entry): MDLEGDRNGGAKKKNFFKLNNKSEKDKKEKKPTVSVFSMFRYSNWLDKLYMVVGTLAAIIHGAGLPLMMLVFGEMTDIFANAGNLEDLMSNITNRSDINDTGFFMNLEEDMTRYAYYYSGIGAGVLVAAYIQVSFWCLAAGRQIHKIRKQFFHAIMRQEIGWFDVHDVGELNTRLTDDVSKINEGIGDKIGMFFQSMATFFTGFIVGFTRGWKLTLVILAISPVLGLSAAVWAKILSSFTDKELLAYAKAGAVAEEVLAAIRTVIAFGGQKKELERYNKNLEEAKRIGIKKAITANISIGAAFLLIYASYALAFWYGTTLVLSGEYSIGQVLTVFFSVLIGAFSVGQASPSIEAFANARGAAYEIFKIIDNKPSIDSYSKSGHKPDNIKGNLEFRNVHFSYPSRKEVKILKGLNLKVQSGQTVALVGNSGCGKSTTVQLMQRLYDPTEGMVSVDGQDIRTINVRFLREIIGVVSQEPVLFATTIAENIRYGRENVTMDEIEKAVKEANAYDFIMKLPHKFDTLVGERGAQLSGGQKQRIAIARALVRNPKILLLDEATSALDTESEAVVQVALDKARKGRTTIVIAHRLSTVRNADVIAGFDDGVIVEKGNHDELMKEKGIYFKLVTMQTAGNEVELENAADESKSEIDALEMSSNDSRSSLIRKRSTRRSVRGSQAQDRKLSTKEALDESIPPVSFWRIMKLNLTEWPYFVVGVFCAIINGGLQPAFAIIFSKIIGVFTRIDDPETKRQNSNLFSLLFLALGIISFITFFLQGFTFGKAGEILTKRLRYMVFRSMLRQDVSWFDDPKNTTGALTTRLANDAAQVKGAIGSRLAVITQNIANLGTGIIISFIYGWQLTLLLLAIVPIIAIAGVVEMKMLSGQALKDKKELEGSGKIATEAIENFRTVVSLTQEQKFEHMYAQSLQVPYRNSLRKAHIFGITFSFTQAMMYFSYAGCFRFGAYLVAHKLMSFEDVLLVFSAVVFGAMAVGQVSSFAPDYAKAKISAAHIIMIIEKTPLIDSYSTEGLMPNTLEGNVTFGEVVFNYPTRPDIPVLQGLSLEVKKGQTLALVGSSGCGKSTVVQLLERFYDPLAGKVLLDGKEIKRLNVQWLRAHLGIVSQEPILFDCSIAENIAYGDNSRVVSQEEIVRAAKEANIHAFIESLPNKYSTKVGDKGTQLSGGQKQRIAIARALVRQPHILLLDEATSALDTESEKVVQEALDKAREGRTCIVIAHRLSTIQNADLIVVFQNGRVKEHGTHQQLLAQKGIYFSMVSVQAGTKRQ

With C=CC(=O)N1CCC([C@@H]2CCNc3c(C(N)=O)c(-c4ccc(Oc5ccccc5)cc4)nn32)CC1 [zanubrutinib] the Substrate status (OAT1) was “unlikely to be a substrate”, the “Percent loss of enzymatic activity” value (CYP2C19) was −4.58% and the P-gp inhibitor status (P-gp) was “not a significant inhibitor of P‐gp”. For the same molecule, the “R 3” value (CYP1A2 [1]) was 0.37, the “Percent loss of enzymatic activity” value (CYP2C9) was 5.86% and the “Percent loss of enzymatic activity” value (CYP1A2 [2]) was 8.10%.
